Test results from US20150105252A1, “SUBSTITUTED PYRAZOLES AS HERBICIDES” (E I DU PONT DE NEMOURS AND COMPANY, priority 2013, published 2015).

Legend:
pigweed [1] = assay: Test A preemergence; type: in vivo, Amaranthus retroflexus; details: preemergence
In short: (§1)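 Visual injury rating, 0–100 (0 no effect, 100 complete control), vs untreated controls ~10 days after treatment in greenhouse. Pre: directed soil spray on seeded loam/sand. Post: 2–10 cm plants, 1–2 leaf stage. Formulation: non-phytotoxic solvent mix + surfactant.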

barnyardgrass [2] = assay: Test B flood; type: in vivo, Echinochloa crus-galli; details: 250 g ai/ha, visual rating on 0 to 100 scale (0 no effect, 100 complete control), 13 to 15 days
In short: (§2)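 Plants were grown to the 2-leaf stage, then pots were flooded to 3 cm above the soil and compounds were applied directly into the paddy water. Water depth was held for the whole test; after 13 to 15 days in a greenhouse, injury was visually rated against untreated controls (0 = no effect, 100 = complete control).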

crabgrass, large = assay: Test C preemergence; type: in vivo, Digitaria sanguinalis; details: preemergence
In short: (§3)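 Postemergence values come from plants sprayed at the 1- to 4-leaf stage (2–18 cm) in peat moss–vermiculite medium; preemergence values from seeds treated in a loam–sand blend. Both evaluated visually against controls after 13–15 greenhouse days, scale 0–100.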

johnsongrass = assay: Test C preemergence; type: in vivo, Sorghum halepense; details: preemergence
In short: as §3

barnyardgrass [3] = assay: Test A postemergence; type: in vivo, Echinochloa crus-galli
In short: as §1

corn = assay: Test A postemergence; type: in vivo, Zea mays
In short: as §1

rice = assay: Test B flood; type: in vivo, Oryza sativa; details: 250 g ai/ha, visual rating on 0 to 100 scale (0 no effect, 100 complete control), 13 to 15 days
In short: as §2

ryegrass, Italian = assay: Test C preemergence; type: in vivo, Lolium multiflorum; details: preemergence
In short: as §3

foxtail, giant = assay: Test A postemergence; type: in vivo, Setaria faberii
In short: as §1

barnyardgrass [4] = assay: Test A preemergence; type: in vivo, Echinochloa crus-galli; details: preemergence
In short: as §1

blackgrass = assay: Test C preemergence; type: in vivo, Alopecurus myosuroides; details: preemergence
In short: as §3

morningglory = assay: Test C preemergence; type: in vivo, Ipomoea coccinea; details: preemergence
In short: as §3

velvetleaf = assay: Test A postemergence; type: in vivo, Abutilon theophrasti; details: Postemergence
In short: as §1

pigweed [5] = assay: Test C preemergence; type: in vivo, Amaranthus retroflexus; details: preemergence
In short: as §3

[6] = 125 g ai/ha, visual injury approx. 10 days after treatment
[7] = 500 g ai/ha, visual injury after approx. 10 days, 0 to 100 scale (0 no effect, 100 complete control)
[8] = 31 g ai/ha, visual rating, scale 0 to 100 (0 no effect, 100 complete control), 13 to 15 days
[9] = 62 g ai/ha, scale 0 to 100 (0 no effect, 100 complete control), 13 to 15 days
[10] = 125 g ai/ha, 13 to 15 days, scale 0 to 100, 0 = no effect, 100 = complete control
[11] = 250 g ai/ha, scale 0 to 100, 0 is no effect, 100 is complete control
[12] = Postemergence, 500 g ai/ha, 0 to 100 scale (0 no effect, 100 complete control)
[13] = postemergence, 125 g ai/ha, about 10 days, visual rating on 0 to 100 scale (0 no effect, 100 complete control)

## CCc1cc(C(=O)NCC2CC2)nn1Cc1ccnc(C(F)(F)F)c1 [Compound 199]
Pigweed [1]; [6]
  Pigweed plant response rating (0 to 100 scale): 100
Pigweed [1]; [7]
  Pigweed plant response rating: 100
Barnyardgrass [2]
  Plant response rating, Barnyardgrass: 55
crabgrass, large; [8]
  Crabgrass, Large plant response rating: 98
crabgrass, large; [9]
  Crabgrass, Large plant response rating: 100
crabgrass, large; [10]
  Plant response rating, Crabgrass, Large: 100
crabgrass, large; [11]
  Crabgrass, Large plant response rating: 100
johnsongrass; [8]
  Johnsongrass plant response rating: 45
johnsongrass; [9]
  Johnsongrass plant response rating: 70
johnsongrass; [10]
  Plant response rating, Johnsongrass: 98
johnsongrass; [11]
  Johnsongrass plant response rating: 100
Barnyardgrass [3]; [12]
  Barnyardgrass plant response rating: 90
Barnyardgrass [3]; [13]
  Barnyardgrass plant response rating: 70
corn; [12]
  Corn plant response rating: 90
corn; [13]
  Corn plant response rating: 50
rice
  Plant response rating, Rice: 45
ryegrass, Italian; [8]
  Ryegrass, Italian plant response rating: 40
ryegrass, Italian; [9]
  Ryegrass, Italian plant response rating: 85
ryegrass, Italian; [10]
  Plant response rating, Ryegrass, Italian: 90
ryegrass, Italian; [11]
  Ryegrass, Italian plant response rating: 90
foxtail, giant; [12]
  Foxtail, Giant plant response rating: 90
foxtail, giant; [13]
  Foxtail, Giant plant response rating: 90
Barnyardgrass [4]; [6]
  Barnyardgrass plant response rating (0 to 100 scale, 0 is no effect, 100 is complete control): 100
Barnyardgrass [4]; [7]
  Barnyardgrass plant response rating: 100
blackgrass; [8]
  Blackgrass plant response rating: 90
blackgrass; [9]
  Blackgrass plant response rating: 90
blackgrass; [10]
  Plant response rating, Blackgrass: 90
blackgrass; [11]
  Blackgrass plant response rating: 90
morningglory; [8]
  Morningglory plant response rating: 60
morningglory; [9]
  Morningglory plant response rating: 100
morningglory; [10]
  Plant response rating, Morningglory: 98
morningglory; [11]
  Morningglory plant response rating: 100
velvetleaf; 125 g ai/ha, 0 to 100 scale, 0 no effect, 100 complete control
  Velvetleaf plant response rating: 80
velvetleaf; 500 g ai/ha, 0 to 100 scale (0 no effect, 100 complete control)
  Velvetleaf plant response rating: 90
Pigweed [5]; [8]
  Pigweed plant response rating: 100
Pigweed [5]; [9]
  Pigweed plant response rating: 100
Pigweed [5]; [10]
  Plant response rating, Pigweed: 100
Pigweed [5]; [11]
  Pigweed plant response rating: 100
